According to ChEMBL document CHEMBL2311520, “Total synthesis of AMF-26, an antitumor agent for inhibition of the Golgi system, targeting ADP-ribosylation factor 1” (J Med Chem, 2013):
Calls of active or inactive are those of the source. The rule behind the calls is not given here.

Experiments:
[1] = Induction of golgi disassembly in human HBC4 cells assessed as presence of GBF1 in cytoplasm after 1 hr by immunofluorescence microscopy; assay type: functional, cell-based
[2] = Growth inhibition of human BSY1 cells after 48 hrs by Sulforhodamine B assay; assay type: functional; conditions: BSY-1, 48 h, read-out: GI50
[3] = Growth inhibition of human HBC4 cells after 48 hrs by Sulforhodamine B assay; assay type: functional; conditions: Homo sapiens, HBC4, 48 h; read-out: GI50
[4] = tested on: HBC4; test: Induction of golgi disassembly in human HBC4 cells assessed as presence of GBF1 in cytoplasm at 10 uM after 1 hr by immunofluorescence microscopy; assay type: functional, cell-based
[5] = Induction of golgi disassembly in human BSY1 cells assessed as presence of GBF1 in cytoplasm after 1 hr by immunofluorescence microscopy; assay type: functional, cell-based; conditions: bsy-1
[6] = tested on: BSY-1; test: Induction of golgi disassembly in human BSY1 cells assessed as presence of GBF1 in cytoplasm at 1 uM after 1 hr by immunofluorescence microscopy; assay type: functional, cell-based
[7] = tested on: HBC4; test: Induction of golgi disassembly in human HBC4 cells assessed as presence of GBF1 in cytoplasm at 0.1 to 1 uM after 1 hr by immunofluorescence microscopy; assay type: functional, cell-based
[8] = tested on: BSY-1; test: Induction of golgi disassembly in human BSY1 cells assessed as presence of GBF1 in cytoplasm at 0.1 to 1 uM after 1 hr by immunofluorescence microscopy; assay type: functional, cell-based

Structure (SMILES): C[C@@H]1[C@@H](O)[C@H](C)C[C@@H]2C=C[C@H](C)[C@H](/C=C/C(=O)NCc3cccnc3)[C@@H]12
- EC50 [1]: > 10000 nM
- GI50 [2]: > 10000 nM
- GI50 [3]: > 10000 nM
- Activity [4]: inactive
- EC50 [5]: > 10000 nM
- Activity [6]: inactive

Structure (SMILES): CC/C(=C\C=C\[C@@H]1[C@H]2[C@H](C)[C@@H](O)[C@H](C)C[C@@H]2C=C[C@@H]1C)C(=O)NCc1cccnc1
- EC50 [1]: 340 nM
- GI50 [2]: 190 nM
- GI50 [3]: 550 nM
- EC50 [5]: 850 nM
- Activity [7]: Active
- Activity [8]: Active
